One test addresses T1, PI3 Kbeta (PI3 Kb) (Homo sapiens, UniProt P42338).
T1 construct: endogenous in cells; host or cells: cell lysate
Put plainly: kinobeads assay, PI3Kbeta. The format is binding. The following applies: kinobeads assay, Table 6; read-out: Inhibition values (IC50) PI3Kb. Summed up:
(§1)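 Read-out is multiplexed immunodetection of kinase eluted from phenylmorpholin-chromen ligand beads after their incubation in cell lysate with test compound at various concentrations. Reduced capture reflects competition, and per-kinase dose-response curves yield IC50.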

Test [1] concerns S6RP serine-240/244 phosphorylation. Put plainly: In vitro Phospho-S6 cellular assay (pS6RP S240/244) in HEK293T/17 cells. Type of test: cell-based. As to conditions: Homo sapiens, 2 hours, read-out: pS6 IC50. Summed up: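 HEK293T/17 cells were seeded at 40,000 (pS6RP) or 80,000 (pAkt) cells/well in DMEM with 2% FCS. They were exposed to 8 compound concentrations (0.1% DMSO) for 2 h at 37 °C and then lysed. Phosphoprotein was quantified by MesoScale electrochemiluminescence sandwich immunoassay, and the sigmoidal variable-slope dose-response was fitted.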

The next test addresses T2, PI3 Kgamma (PI3 Kg) (Homo sapiens, UniProt P48736).
T2 construct: endogenous in cells; host or cells: cell lysate
Put plainly: kinobeads assay, PI3Kgamma. The format is binding. The following applies: kinobeads assay, Table 6; read-out: Inhibition values (IC50) PI3Kg. Summed up: as §1

14 compounds from patent US8785457B2 (Cellzome Limited, priority 2009, dated 2014) can be followed below.

T2 sequence (P48736 whole entry): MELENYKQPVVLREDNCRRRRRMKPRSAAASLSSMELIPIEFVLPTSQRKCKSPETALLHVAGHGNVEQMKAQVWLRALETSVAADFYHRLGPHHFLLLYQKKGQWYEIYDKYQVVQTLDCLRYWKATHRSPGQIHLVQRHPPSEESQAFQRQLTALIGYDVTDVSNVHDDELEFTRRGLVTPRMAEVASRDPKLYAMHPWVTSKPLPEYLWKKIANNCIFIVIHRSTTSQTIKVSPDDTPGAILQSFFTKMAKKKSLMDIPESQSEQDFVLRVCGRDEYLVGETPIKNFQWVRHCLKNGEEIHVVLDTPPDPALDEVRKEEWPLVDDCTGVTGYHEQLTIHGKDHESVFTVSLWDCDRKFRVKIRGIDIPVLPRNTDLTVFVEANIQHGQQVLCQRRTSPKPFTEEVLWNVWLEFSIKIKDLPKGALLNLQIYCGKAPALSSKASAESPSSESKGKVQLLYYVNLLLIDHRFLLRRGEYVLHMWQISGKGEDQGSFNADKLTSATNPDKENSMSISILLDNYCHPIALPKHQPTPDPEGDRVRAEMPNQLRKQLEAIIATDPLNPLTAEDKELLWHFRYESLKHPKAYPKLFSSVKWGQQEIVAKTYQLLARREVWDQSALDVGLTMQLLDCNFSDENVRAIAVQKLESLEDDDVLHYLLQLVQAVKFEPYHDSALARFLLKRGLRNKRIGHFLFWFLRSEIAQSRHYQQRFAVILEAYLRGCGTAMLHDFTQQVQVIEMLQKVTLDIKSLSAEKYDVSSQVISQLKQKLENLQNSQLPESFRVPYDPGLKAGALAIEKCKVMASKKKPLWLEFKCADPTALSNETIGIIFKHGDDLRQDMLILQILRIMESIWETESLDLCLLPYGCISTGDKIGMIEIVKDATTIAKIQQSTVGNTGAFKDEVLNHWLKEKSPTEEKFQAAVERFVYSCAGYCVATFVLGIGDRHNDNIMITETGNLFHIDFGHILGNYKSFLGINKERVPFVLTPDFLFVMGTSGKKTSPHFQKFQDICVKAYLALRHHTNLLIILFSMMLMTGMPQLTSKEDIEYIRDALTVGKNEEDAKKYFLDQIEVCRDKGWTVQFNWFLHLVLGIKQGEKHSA
T1 sequence (P42338 whole entry): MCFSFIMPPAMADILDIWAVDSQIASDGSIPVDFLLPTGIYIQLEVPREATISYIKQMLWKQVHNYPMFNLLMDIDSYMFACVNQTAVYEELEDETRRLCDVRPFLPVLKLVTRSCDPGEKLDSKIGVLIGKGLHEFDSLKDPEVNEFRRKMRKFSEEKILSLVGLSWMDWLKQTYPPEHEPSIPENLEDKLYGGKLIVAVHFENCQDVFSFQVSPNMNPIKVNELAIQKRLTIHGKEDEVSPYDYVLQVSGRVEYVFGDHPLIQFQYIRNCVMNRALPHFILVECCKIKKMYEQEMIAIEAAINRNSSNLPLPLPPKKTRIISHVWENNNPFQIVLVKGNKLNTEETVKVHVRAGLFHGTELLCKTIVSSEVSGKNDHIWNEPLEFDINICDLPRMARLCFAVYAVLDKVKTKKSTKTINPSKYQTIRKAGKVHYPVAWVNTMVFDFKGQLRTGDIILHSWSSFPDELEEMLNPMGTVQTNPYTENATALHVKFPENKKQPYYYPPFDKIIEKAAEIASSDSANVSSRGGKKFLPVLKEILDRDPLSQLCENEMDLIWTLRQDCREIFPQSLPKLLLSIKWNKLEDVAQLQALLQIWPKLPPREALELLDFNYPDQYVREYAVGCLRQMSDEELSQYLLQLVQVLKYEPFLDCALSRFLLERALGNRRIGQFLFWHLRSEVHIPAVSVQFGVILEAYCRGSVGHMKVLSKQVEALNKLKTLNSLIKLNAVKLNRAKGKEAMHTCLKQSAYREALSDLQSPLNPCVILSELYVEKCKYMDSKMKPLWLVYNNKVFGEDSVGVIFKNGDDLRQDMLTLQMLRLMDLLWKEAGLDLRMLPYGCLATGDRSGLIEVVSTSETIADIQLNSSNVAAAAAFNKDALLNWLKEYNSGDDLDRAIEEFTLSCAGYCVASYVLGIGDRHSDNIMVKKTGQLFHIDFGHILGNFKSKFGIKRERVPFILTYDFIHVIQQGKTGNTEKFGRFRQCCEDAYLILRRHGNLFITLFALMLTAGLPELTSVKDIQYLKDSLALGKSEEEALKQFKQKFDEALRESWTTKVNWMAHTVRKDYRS
T1 sequence (P27986 whole entry partner): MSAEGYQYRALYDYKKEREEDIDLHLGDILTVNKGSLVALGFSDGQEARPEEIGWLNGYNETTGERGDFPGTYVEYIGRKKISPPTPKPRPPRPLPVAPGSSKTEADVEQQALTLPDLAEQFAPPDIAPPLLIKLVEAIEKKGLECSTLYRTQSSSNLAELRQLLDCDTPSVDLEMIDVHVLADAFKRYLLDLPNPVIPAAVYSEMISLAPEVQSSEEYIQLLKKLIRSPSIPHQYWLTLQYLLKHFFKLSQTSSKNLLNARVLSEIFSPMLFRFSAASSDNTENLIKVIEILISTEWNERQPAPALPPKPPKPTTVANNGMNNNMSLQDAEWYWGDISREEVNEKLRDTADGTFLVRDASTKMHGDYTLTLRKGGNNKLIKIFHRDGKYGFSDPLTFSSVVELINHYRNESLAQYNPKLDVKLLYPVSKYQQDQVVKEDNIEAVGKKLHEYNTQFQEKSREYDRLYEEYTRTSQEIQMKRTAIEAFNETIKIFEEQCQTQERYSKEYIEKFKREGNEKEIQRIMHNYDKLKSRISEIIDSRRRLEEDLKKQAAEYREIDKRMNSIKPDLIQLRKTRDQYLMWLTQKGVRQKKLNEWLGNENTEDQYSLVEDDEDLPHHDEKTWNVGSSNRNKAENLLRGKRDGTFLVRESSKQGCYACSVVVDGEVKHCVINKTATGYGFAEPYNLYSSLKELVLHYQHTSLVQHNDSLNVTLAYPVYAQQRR

Consider `CCNC(=O)Nc1ccc(-c2nc3c(c(N4CCOCC4)n2)CN(C(=O)C(C)(C)C)C3)cc1` [Example 100, 1-ethyl-3-(4-(4-morpholino-6-pivaloyl-6,7-dihydro-5H-pyrrolo[3,4-d]pyrimidin-2-yl)phenyl)urea], for which the half-maximal inhibitory concentration (IC50) is over 10 µM at PI3 Kbeta (PI3 Kb), 0.202 µM in test [1] and over 10 µM on PI3 Kgamma (PI3 Kg).
Consider `CCNC(=O)Nc1ccc(-c2nc3c(c(N4CCOC[C@@H]4C)n2)CCN(C(=O)CO)C3)cc1` [Example 102, (S)-1-ethyl-3-(4-(7-(2-hydroxyacetyl)-4-(3-methylmorpholino)-5,6,7,8-tetrahydropyrido[3,4-d]pyrimidin-2-yl)phenyl)urea], for which the half-inhibitory concentration (IC50) at PI3 Kbeta (PI3 Kb) was over 10 µM; in test [1], 0.258 µM; at PI3 Kgamma (PI3 Kg) it was over 10 µM.
As for `CCNC(=O)Nc1ccc(-c2nc3c(c(N4CCOC[C@@H]4C)n2)CN(C(=O)OCC)C3)cc1F` [Example 103, (S)-ethyl-2-(4-(3-ethylureido)-3-fluorophenyl)-4-(3-methylmorpholino)-5H-pyrrolo[3,4-d]pyrimidine-6(7H)-carboxylate], the values for the IC50 (on PI3 Kbeta (PI3 Kb); in test [1]; on PI3 Kgamma (PI3 Kg)) were over 10 µM, 0.207 µM and over 10 µM, respectively.
`CCOC(=O)N1Cc2nc(-c3ccc(NC(=O)NCCO)c(F)c3)nc(N3CCOC[C@@H]3C)c2C1` [Example 104, (S)-ethyl-2-(3-fluoro-4-(3-(2-hydroxyethyl)ureido)phenyl)-4-(3-methylmorpholino)-5H-pyrrolo[3,4-d]pyrimidine-6(7H)-carboxylate]: the IC50 on PI3 Kbeta (PI3 Kb) is over 10 µM; in test [1], 0.39 µM; on PI3 Kgamma (PI3 Kg), over 10 µM.
In the case of `CCOC(=O)N1Cc2nc(-c3ccc(NC(=O)NC4CC4)c(F)c3)nc(N3CCOC[C@@H]3C)c2C1` [Example 105, (S)-ethyl 2-(4-(3-cyclopropylureido)-3-fluorophenyl)-4-(3-methylmorpholino)-5H-pyrrolo[3,4-d]pyrimidine-6(7H)-carboxylate], the IC50 at PI3 Kbeta (PI3 Kb) was over 10 µM; in test [1] it was 0.414 µM; on PI3 Kgamma (PI3 Kg) it was over 10 µM.
Consider `CCNC(=O)Nc1ncc(-c2nc3c(c(N4CCOC[C@@H]4C)n2)CCN(C)C3)s1` [Example 106, (S)-1-ethyl-3-(5-(7-methyl-4-(3-methylmorpholino)-5,6,7,8-tetrahydropyrido[3,4-d]pyrimidin-2-yl)thiazol-2-yl)urea], for which the figures for the IC50 (on PI3 Kbeta (PI3 Kb); in test [1]; at PI3 Kgamma (PI3 Kg)) were over 10 µM, 0.294 µM and over 10 µM, respectively.
As to `CCNC(=O)Nc1ccc(-c2nc3c(c(N4CCOC[C@@H]4C)n2)CN(C(=O)OCC)CC3)cc1` [Example 107, (S)-ethyl 2-(4-(3-ethylureido)phenyl)-4-(3-methylmorpholino)-7,8-dihydropyrido[4,3-d]pyrimidine-6(5H)-carboxylate], the IC50 at PI3 Kbeta (PI3 Kb) was over 10 µM; in test [1] it was 0.159 µM; at PI3 Kgamma (PI3 Kg) it was over 10 µM.
As for `CCNC(=O)Nc1cc(F)c(-c2nc3c(c(N4CCOC[C@@H]4C)n2)CCN(C)C3)cc1F` [Example 108, (S)-1-(2,5-difluoro-4-(7-methyl-4-(3-methylmorpholino)-5,6,7,8-tetrahydropyrido[3,4-d]pyrimidin-2-yl)phenyl)-3-ethylurea], the 50% inhibitory concentration (IC50) at PI3 Kbeta (PI3 Kb) is over 10 µM; in test [1], 0.935 µM; at PI3 Kgamma (PI3 Kg) it was over 10 µM.
Regarding `CCNC(=O)Nc1ccc(-c2nc3c(c(N4CCOC[C@@H]4C)n2)CCN(C)C3)c(F)c1` [Example 110, (S)-1-ethyl-3-(3-fluoro-4-(7-methyl-4-(3-methylmorpholino)-5,6,7,8-tetrahydropyrido[3,4-d]pyrimidin-2-yl)phenyl)urea], the IC50 was over 10 µM on PI3 Kbeta (PI3 Kb), 0.192 µM in test [1] and over 10 µM on PI3 Kgamma (PI3 Kg).
Take `CCNC(=O)Nc1ccc(-c2nc3c(c(N4CCOC[C@@H]4C)n2)CN(C(=O)OCC)C3)c(F)c1` [Example 113, (S)-ethyl-2-(4-(3-ethylureido)-2-fluorophenyl)-4-(3-methylmorpholino)-5H-pyrrolo[3,4-d]pyrimidine-6(7H)-carboxylate]: the concentration for half-maximal inhibition (IC50) at PI3 Kbeta (PI3 Kb) is over 10 µM; in test [1] it was 0.077 µM; at PI3 Kgamma (PI3 Kg), over 10 µM.
For `CCOC(=O)N1Cc2nc(-c3ccc(NC(=O)NCCF)cc3)nc(N3CCOC[C@@H]3C)c2C1` [Example 120, (S)-ethyl 2-(4-(3-(2-fluoroethyl)ureido)phenyl)-4-(3-methylmorpholino)-5H-pyrrolo[3,4-d]pyrimidine-6(7H)-carboxylate], the IC50 at PI3 Kbeta (PI3 Kb) is over 10 µM; in test [1], 0.025 µM; on PI3 Kgamma (PI3 Kg) it was over 10 µM.
For `CCOC(=O)N1Cc2nc(-c3ccc(NC(=O)Nc4ccncc4)cc3)nc(N3CCOC[C@@H]3C)c2C1` [Example 121, (S)-ethyl 4-(3-methylmorpholino)-2-(4-(3-(pyridin-4-yl)ureido)phenyl)-5H-pyrrolo[3,4-d]pyrimidine-6(7H)-carboxylate], the half-inhibitory concentration (IC50) at PI3 Kbeta (PI3 Kb) was over 10 µM; in test [1], 0.033 µM; at PI3 Kgamma (PI3 Kg) it was over 10 µM.
Regarding `CCNC(=O)Nc1ccc(-c2nc3c(c(N4CCOC[C@@H]4C)n2)CN(C2CCN(C(=O)OC)CC2)C3)cc1F` [Example 122, (S)-methyl 4-(2-(4-(3-ethylureido)-3-fluorophenyl)-4-(3-methylmorpholino)-5H-pyrrolo[3,4-d]pyrimidin-6(7H)-yl)piperidine-1-carboxylate], the half-maximal inhibitory concentration (IC50) was over 10 µM on PI3 Kbeta (PI3 Kb), 0.175 µM in test [1] and over 10 µM on PI3 Kgamma (PI3 Kg).
Turning to `CCOC(=O)N1Cc2nc(-c3ccc(NC(=O)NC4CC4)cc3F)nc(N3CCOC[C@@H]3C)c2C1` [Example 131, (S)-ethyl 2-(4-(3-cyclopropylureido)-2-fluorophenyl)-4-(3-methylmorpholino)-5H-pyrrolo[3,4-d]pyrimidine-6(7H)-carboxylate], the half-inhibitory concentration (IC50) was over 10 µM at PI3 Kbeta (PI3 Kb), 0.099 µM in test [1] and over 10 µM on PI3 Kgamma (PI3 Kg).

A word on the IC50: it is the midpoint of a concentration-inhibition curve.
